In patent US8193333B2, “Cancer therapy using Bcl-Xl-specific siNA” (Centre Regional de Lutte Contre le Cancer-Centre Francois …, priority 2006, dated 2012):

Key:
SKOV3 cells = test: Cell mortality, viability, growth and cell cycle of SKOV3 cells (morphology, trypan blue exclusion, FACS of DNA content); type: cell-based, human
Description: Exponentially growing cells were exposed to CDDP for 2 hours at 37° C., in serum free medium. After exposure to the drug, the cell layers were rinsed and incubated in complete growth medium.
The siRNA duplexes were transfected according to the recommended procedure by using the Oligofectamine Reagent and Opti-MEM medium (INVITROGEN LIFE TECHNOLOGIES). 30-40% confluent cells were transfected in 25 cm^2 flasks with different concentrations of siXL1, siRNA Mcl-1 or siRNA control and incubated at 37° C., 5% CO2 for 4 hours. Next, 20% fetal bovin serum was added to reach a final concentration of 10% foetal bovin serum in the 25 cm^2 flask.
After treatment, detached cells were collected separately and adherent cells were dissociated by trypsin/EDTA. Adherent and detached cells were then pooled and centrifuged at 1500×g for 5 min before being fixed in 70% ethanol. The cells were then collected on a polylysine-coated glass slide by cytocentrifugation, before a 30 min room temperature incubation in a 1 μg/ml DAPI aqueous solution (BOEHRINGER MANNHEIM). Slides were thereafter extensively washed in distilled water and mounted in Mowiol (CALBIO-CHEM).
After treatment, detached cells were collected separately. Adherent cells were then harvested by trypsin/EDTA dissociation. Adherent and detached cells were then pooled and washed in PBS before being fixed in 70% ethanol and stored at −20° C. until analysis. Before flow cytometry analysis, the cells were washed in PBS and incubated for 30 min at room temperature in PBS in order to allow the release of low molecular weight (m.w.) DNA, characteristic of apoptotic cells. After a centrifugation at 4000 g for 10 min, the cell pellets were resuspended and stained with propidium iodide (PI) using the DNA Prep Coulter Reagent Kit (BECKMAN-COULTER) at a final concentration of 10^6 cells/ml.
Samples were analyzed using an EPICS XL flow cytometer (BECKMAN COULTER) equipped with an argon laser at 15 mW. PI-stained cells were analyzed using a 488 mn excitation. A 620 nm band pass filter was put on the red fluorescence of PI. Computerized gating was applied on the side and forward scatter to exclude very small debris and on pulse width and integral peak of red fluorescence to eliminate aggregates. All samples were analyzed at a flow rate lower than 100 events per second and with a sheath pressure of 30 psi.

[1] = system: intraperitoneal SKOV3 human ovarian adenocarcinoma; test: Survival of nude mice bearing intraperitoneal SKOV3 tumours; type: in vivo, Swiss/nude mice
Description: 4-week-old female Swiss/nude mice were obtained from CHARLES-RIVER LABORATORIES and maintained in a pathogen-free environment. The mice were fed a standard laboratory diet and tap water ad libitum and kept a 23±1° C. with a 12 h light/dark cycle. Animal experiments in the present study were performed in compliance with the guidelines of the Federation of european laboratory animal science associations.
6-8 weeks old mice were implanted intraperitoneally with 2×10^7 ovarian adenocarcinoma SKOV3 cells. As described previously, this model reflects the i.p growth pattern of advanced ovarian cancer (Louis et al, Cancer Gene Therapy, 2006, 13, 367-374).
Twenty one days after tumour implantation, mice were allocated to one of the eight treatment groups (10 mice per group) summarized in Table II: • Group 1 comprised untreated animals. • Group 2 received intraperitoneal injection of 4 μg/kg cisplatin in 1 ml 0.9% NaCl solution. • Group 3 received intraperitoneal injection of 25 μg/kg control siRNA in 1 ml 0.9% NaCl. • Group 4 received intraperitoneal injection of 25 μg/kg Bcl-XL siRNA in 1 ml 0.9% NaCl. • Group 5 received intraperitoneal injection of 25 μg/kg control siRNA in 1 ml 0.9% NaCl and the following day 4 μg/kg of cisplatin in 1 ml 0.9% NaCl solution. • Group 6 received intraperitoneal injection of 4 μg/kg of cisplatin in 1 ml 0.9% NaCl solution and the following day 25 μg/kg control siRNA in 1 ml 0.9% NaCl. • Group 7 received intraperitoneal injection of 25 μg/kg Bcl-XL siRNA in 1 ml 0.9% NaCl and the following day 4 μg/kg of cisplatin in 1 ml 0.9% NaCl solution. • Group 8 received intraperitoneal injection of 4 μg/kg of cisplatin in 1 ml 0.9% NaCl solution and the following day 25 μg/kg Bcl-XL siRNA in 1 ml 0.9% NaCl.
The same treatment was repeated one month later. Mice were killed and autopsied when considered as moribund. Organs and tumours were formalin-fixed and paraffin-embedded for histological examination. At the end of the experiment, all surviving animals were sacrificed, and histological examination was performed in order to detect residual tumour nodes.

Bcl-XL protein = test: Immunohistochemical analysis of Bcl-XL protein in SKOV3 peritoneal tumour nodes of mice; type: in vivo, human; settings: naked siXL1 5, 25 or 100 μg/kg, 3 days after injection
Description: […] […] The solution was quickly homogenized and left for 15 min at room temperature. It was injected intraperitoneally in mice as a 0.5 ml 5% glucose solution.
[…] Mice were killed 3 days after transfection and each organ (kidney, liver, spleen, pancreas, ovary, peritoneum, diaphragm, lung, heart and skeletal muscle) was washed with saline solution. Parts of each organs were either frozen in liquid nitrogen and stored at −80° C. for RT-PCR and western blot analysis, or formalin-fixed and paraffin-embedded for histological examination and immunohistochemical analysis.
Immunohistochemical staining was performed on paraffin-embedded material. To perform immunostaining, 4 μm-thick sections were dewaxed, rehydrated and treated 30 minutes by high-temperature-heating antigen retrieval technique in citrate buffer 0.1M pH6 to unmask epitopes. Sections were incubated 1 hour at room temperature with polyclonal antibody anti-Bcl-XL/S (S18) obtained from Santa Cruz (TEBU-BIO) and diluted 1:50. After washes, slides were incubated with Rabbit IgG Vectastain ABC Kit (VECTOR, ABCYS) according to the manufacturer instructions.

siXL1: double-stranded siRNA blocking Bcl-XL expression; sense 5′-auuggugagucggaucgcatt-3′ (SEQ ID NO: 5), anti-sense 5′-ugcgauccgacucaccaautt-3′ (SEQ ID NO: 6) (sense AUUGGUGAGUCGGAUCGCATT; antisense UGCGAUCCGACUCACCAAUTT; chemistry not given here)
cytotoxic effect on SKOV3 cells (SKOV3 cells; 50 nM each siRNA, absence of cisplatin, FIG. 12): no cytotoxic effect | cytotoxic effect of each siRNA (SKOV3 cells; SKOV3 cells, FIGS. 13 and 14): slight cytoxic effect | cell viability (trypan blue exclusion) (SKOV3 cells; SKOV3 cells, alone 150 nM or in combination 75 nM each, FIGS. 13 and 14): reduction of cell viability | cell death (morphology, FACS analysis of the cell cycle) (SKOV3 cells; SKOV3 cells, cisplatin 5 or 20 μg/ml, siRNA 150 nM): moderate cell death by apoptosis | mice that die in the same interval as the control mice ([1]; group treated with siXL1): 50% | mice with no residual tumors at autopsy after 150 days ([1]; group treated with siXL1): 50% | duration of complete regression of the pre-established tumor after tumor cells implantation ([1]; low dose, mice implanted with human chemoresistant tumor cells): at least 5 months | survival at 130 days ([1]; naked siRNA 25 μg/kg intraperitoneal, 2 injections at 28 days interval, FIG. 15): 60% | effect on mice survival ([1]; siRNA 25 μg/kg, cisplatin 4 μg/kg intraperitoneal, treatment repeated one month later, FIG. 15): increases considerably | Bcl-XL labelling intensity in tumour nodes (Bcl-XL protein): decreases as the siXL1 dose increases
